# Patent US6613507B1 (priority 2000, dated 2003)
# Key:
# hepatitis C = conditions: human, in vivo; cited from earlier work
# [1] = assay type: physicochemical; conditions: pH 7.4
# [2] = dog, in vivo; cited from earlier work
SMILES,biochemical and virological markers (hepatitis C),amino group protonated at physiological pH [1],increase in blood pressure [2]
"NC12CC3CC(CC(C3)C1)C2 [amantadine, 1-adamantanamine]",improved,over 90%,–
CNC[C@H](O)c1cccc(O)c1 [phenylephrine],–,–,20%
